{"source": "patent US6572865B1", "about": "“Mycobacterium tuberculosis DNA sequences encoding immunostimulatory peptides and methods for using same” (priority 1995, dated 2003)", "key": {"[1]": {"test_system": "T-cells from tuberculin-positive people", "assay_type": "cell-based, human"}, "[2]": {"test_system": "immune T-cells", "assay_type": "cell-based, mice", "settings": "Table 2; background subtracted; up to ten μg fusion peptide"}, "[3]": {"settings": "5×10^5 mononuclear cells, up to 1 μg/mL peptide or up to 50 ng/mL PhoA fusion protein"}, "[4]": {"settings": "up to 1 μg/mL peptide or up to 50 ng/mL PhoA fusion protein, background 103.3"}}, "note": "Where two headings read alike, the source gives them in different places."}
{"molecule": "EYSRFVGDVFGAPLAME [CD-2/1/96/10, synthetic peptide from AciI#2-827]", "values": [{"measurement": "Concentration of INF-γ", "setting": "[1]; [3]", "value": 134.0, "unit": "pg/mL"}, {"measurement": "Concentration of INF-γ minus background", "setting": "[1]; [4]", "value": 30.7, "unit": "pg/mL"}]}
{"molecule": "GKTYDAYFTDAGGITPG [HPI1-3/2, synthetic peptide from HinP#1-3]", "values": [{"measurement": "Concentration of INF-γ", "setting": "[1]; [3]", "value": 136.3, "unit": "pg/mL"}, {"measurement": "Concentration of INF-γ minus background", "setting": "[1]; [4]", "value": 23.0, "unit": "pg/mL"}]}
{"molecule": "GRAELSSIVVLLTNNTA [CD-2/1/96/14, synthetic peptide from AciI#2-827]", "values": [{"measurement": "Concentration of INF-γ", "setting": "[1]; [3]", "value": 310.2, "unit": "pg/mL"}, {"measurement": "Concentration of INF-γ minus background", "setting": "[1]; [4]", "value": 206.9, "unit": "pg/mL"}]}
{"molecule": "PhoA control: PhoA protein employed as a negative control [reference compound]", "values": [{"measurement": "Concentration of INF-γ", "setting": "[1]; control at 10 μg/mL", "value": 26.7, "unit": "pg/mL"}, {"measurement": "Concentration of INF-γ minus background", "setting": "[1]; control at 10 μg/mL", "value": 0, "unit": "pg/mL"}]}
{"molecule": "SRFVGDVFGAPLAMESL [CD-2/1/96/11, synthetic peptide from AciI#2-827]", "values": [{"measurement": "Concentration of INF-γ", "setting": "[1]; [3]", "value": 141.6, "unit": "pg/mL"}, {"measurement": "Concentration of INF-γ minus background", "setting": "[1]; [4]", "value": 38.3, "unit": "pg/mL"}]}
{"molecule": "VTDNPAWYRLTKFFGKL [CD-2/1/96/1, synthetic peptide from AciI#2-827]", "values": [{"measurement": "Concentration of INF-γ", "setting": "[1]; [3]", "value": 256.6, "unit": "pg/mL"}, {"measurement": "Concentration of INF-γ minus background", "setting": "[1]; [4]", "value": 153.3, "unit": "pg/mL"}]}
{"molecule": "WSEYSRFVGDVFGAPLA [CD-2/1/96/9, synthetic peptide from AciI#2-827]", "values": [{"measurement": "Concentration of INF-γ", "setting": "[1]; [3]", "value": 187.6, "unit": "pg/mL"}, {"measurement": "Concentration of INF-γ minus background", "setting": "[1]; [4]", "value": 84.3, "unit": "pg/mL"}]}
{"molecule": "YDAYFTDAGGITPGNSV [HPI1-3/3, synthetic peptide from HinP#1-3]", "values": [{"measurement": "Concentration of INF-γ", "setting": "[1]; [3]", "value": 264.2, "unit": "pg/mL"}, {"measurement": "Concentration of INF-γ minus background", "setting": "[1]; [4]", "value": 160.9, "unit": "pg/mL"}]}
{"molecule": "AciI#3-243: AP-fusion clone; SEQ ID NO: 112; MTCY50.02 (protein, AP-fusion clone; MTCY50.02) AGGCGACGGTTGGCACCACCACGAGTGAGTCAGGCAGGAGCCCCGCCACGTTGCGGACGGCGCGAATCTTCGCCTGTGGCTCACCGACTTTCCGCCCAACTTCAACGATCTTGCACATGGACGGCAAGAACGCCGAGGTCGCG", "values": [{"measurement": "INF: pg/mL of INF-γ produced using fusion to stimulate immune T-cells", "setting": "[2]", "value": "2,857 pg/mL"}]}
{"molecule": "AciI#2-874: AP-fusion clone; SEQ ID NO: 73; MTCY190.20 (protein, AP-fusion clone; MTCY190.20) VMPSSIGLVVGSMLWRQINRLFGVRGLCWAAHCSTPLCAAVHGGRVVWAVGSRLGVLHGVPAGYGGRSNGGRRIDIVDQRPRAR", "values": [{"measurement": "INF: pg/mL of INF-γ produced using fusion to stimulate immune T-cells", "setting": "[2]", "value": "2,171 pg/mL"}]}
